Values quoted from earlier work in US20190282540A1, “TARGETED DRUG DELIVERY” (NOXOPHARM LIMITED, priority 2016, published 2019).

What was measured:
[1] = system: wide range of cancer cell types; conditions: fold relative to genistein
[2] = [14C] idronoxil given orally, target dose 20 mg/kg
[3] = in vivo, following dietary challenge

| SMILES | potency as an anti-cancer agent compared to genistein [1] | levels of isotope in the brain and spinal cord [2] | conjugation (intravenously administered, second-pass liver metabolism) | conversion into water-soluble conjugates (orally administered, gut mucosa transferase activity and first-pass liver metabolism) | brain-to-blood ratio [3] |
| --- | --- | --- | --- | --- | --- |
| Oc1ccc(C2=Cc3ccc(O)cc3OC2)cc1 [Idronoxil, 2H-1-Benzopyran-7-0,1,3-(4-hydroxyphenyl)] | about 10 × | below the limit of reliable measurement | completely conjugated | completely converted into water-soluble conjugates | – |
| O=c1c(-c2ccc(O)cc2)coc2cc(O)cc(O)c12 [genistein] | – | – | – | – | 0.04 |
